From US6288028A, “BPC peptide salts with organo-protective activity, the process for their preparation and their use in therapy” (priority 1997, dated 2001)
Where no end group is shown, it is not given here.

Key:
[1] = tested on: portal blood pressure, organ lesions; test: Chronic alcohol intoxication; assay type: in vivo, Male Albino Wistar rats; details: alcohol for three months; NaBPC157 10 μg, 10 ng/kg; propranolol, ranitidine 10 mg/kg b.w.
Description: The effects of NaBPC157 on chronic alcohol intoxication were examined. Male Albino Wistar rats were used for these experiments. The rats were drinking either commercial whiskey or ethanol (10-20% water solution) for three months. The application of NaBPC157 (10 μg, 10 ng/kg b.w.), propranolol (10 mg/kg b.w.), and ranitidine (10 mg/kg b.w.) (control rats received an equivolume of saline 5.0 ml/kg), either intragastrically or intraperitoneally, was conducted either prophylactically (10 days before alcohol initiation) or as a co-treatment together with alcohol or therapeutically (starting at the end of a two month period, i.e. during the last month of the experiment).

[2] = tested on: reflux esophagitis; test: Reflux esophagitis after esophagojejunal anastomosis; design: species or system rats; details: rat, in vivo
Description: (§1) The effects of NaBPC157 (10 μg or 10 ng/kg i.p., i.g.) were investigated in rats in comparison with several reference standards in several experimental ulcer models (48 hour-restraint stress, subcutaneous cysteamine, intragastrical 96% ethanol ulcer tests, NSAIAs-lesions, DNFB (Dinitrofluorhenzene), reflux esophagitis following esophagojejunal termino-lateral anastomosis) (pre-/co-/post-treatment).

[3] = tested on: restraint stress lesions; test: 48 hour-restraint stress ulcer model; assay type: in vivo, rats
Description: as §1

[4] = tested on: amphetamine stereotyped behavior; test: Amphetamine stereotypes and excitability; assay type: in vivo, rats; details: no amphetamine
Description: The effects of NaBPC157 on the dopamine agonist amphetamine (10 mg/kg i.p.) stereotypes and on excitability were studied. NaBPC157 was applied as a prophylactic co-treatment or therapeutic salutary regimen (10 μg or 10 ng/kg i.p.). The stereotyped behaviour and excitability was induced in rats.

[5] = Toxicity observations; assay type: in vivo; details: high dosages (e.g. g/kg b.w., i.p.)
[6] = tested on: Pulmonary Hypertension Syndrome (PHS) and tissue lesions; test: Pulmonary Hypertension Syndrome, acute and chronic toxicity; assay type: in vivo, chicks; details: for tissue or organ damage (pathohistology): acute and chronic toxicity
Description: The present experiments describe the effects of nitric oxide (NO) agonists and antagonists and the influence of NaBPC157 on the development of Pulmonary Hypertension Syndrome (PHS) and tissue lesions in chicks. Experiments investigating acute toxicity were conducted. These included single dose applications of saline (1 ml i.p.), NaBPC157 (10 μg/kg b.w.), L-NAME (NO antagonist/doses 50, 100, 150 mg/kg b.w.) and L-arginine (NO agonist/100 mg/kg b.w./with their combination (L-NAME+NaBPC157, L-NAME+L-arginine)). Pathohistological examinations of the spleen, heart, liver and lungs and hematological analyses were conducted. Furthermore, chronic toxicity experiments were conducted. The animals were treated daily during five weeks with L-NAME (10 mg/kg b.w.), L-arginine (100 mg/kg b.w.), NaBPC157 (10 μg/kg b.w.) and their combinations (L-NAME+NaBPC157, L-NAME+L-arginine) intraperitoneally. Seven animals from each group including controls (saline 1 ml i.p.) were sacrificed every week.

[7] = tested on: diazepam tolerance and withdrawal; test: Diazepam tolerance and physical dependence, isoniazid latencies; design: species or system mice; details: mouse, in vivo
Description: In tolerance assays forty-two hours after the conditioning regimen, shorter preconvulsive latencies than that in healthy mice following an isoniazid treatment (800 mg/kg i.p.) were observed if diazepam (5.0 mg/kg i.p.) was given again to mice previously conditioned with diazepam alone. […] In this group at six hour intervals, unlike in diazepam conditioned mice, isoniazid preconvulsive latencies were still longer than in corresponding controls.

[8] = tested on: gastric lesions (96% ethanol); test: Ethanol gastric lesions, NO-system; assay type: in vivo, rats; details: for effect on ethanol gastric lesions, agent given alone: NaBPC157 10 μg or 10 ng/kg i.p. with 96% ethanol i.g., 1 hour, L-NAME 5 mg/kg i.v., L-arginine 200 mg/kg i.v. 5 minutes before
Description: Some of the effects of NaBPC157 (10 μg or 10 ng/kg) were challenged in rats, such as the salutary activity against gastric lesions and NaBPC157's activity with respect to blood pressure maintenance. The lesions were obtained by using a 1 hour ethanol treatment (96%, i.g. (intragastrically)). NaBPC157 was simultaneously applied (i.p. (intraperitoneally)). In the blood pressure maintenance experiment, NaBPC157 was given intravenously (i.v.).
Also studied was the combined application of N^G -nitro-L-arginine methylester (L-NAME) (5 mg/kg i.v.), a competitive inhibitor of endothelium nitric oxide (NO)-generation and the NO-precursor L-arginine (200 mg/kg i.v.) (D-arginine was ineffective). In the gastric lesion assays, the NO-agents were given 5 minutes before the ethanol injury and the treatment with NaBPC157.

[9] = tested on: DNFB-intestinal lesions; test: DNFB-intestinal lesions; design: species or system rats; details: rat, in vivo
Description: as §1

[10] = tested on: mobility in chronically stressed rats; test: Chronic unpredictable stress, open field-immobility test; assay type: in vivo, rat; details: NaBPC157 10 μg, 10 ng; imipramine 30 mg; once daily
Excerpt: Various antidepressants have antiulcer activity and the models currently used in ulcer and depression research share a considerable degree of similarity. Therefore, the possibility that depression disorders could be effectively influenced by a primary antiulcer agent with cyto-/organo-protective activity such as NaBPC157 was investigated in two rat depression assays: the forced swimming test (a Porsolt's procedure) and the chronic unpredictable stress method (after five days of unpredictable stress protocol, once-daily drug application during the stress procedure and an open field-immobility test assessment at fourth and sixth days of medication).

[11] = tested on: cysteamine ulcer; test: Subcutaneous cysteamine ulcer test; assay type: in vivo, rats; details: reference peptides
[12] = tested on: ethanol ulcer; test: Intragastrical 96% ethanol ulcer test; assay type: in vivo, rats; details: reference peptides; related to treatment conditions

## CC(C)NCC(O)COc1cccc2ccccc12 (stereo not drawn) [propranolol]
[1]
  portal blood pressure: markedly prevented and/or decreased

## CNC(=C[N+](=O)[O-])NCCSCc1ccc(CN(C)C)o1 [ranitidine]
[1]
  portal blood pressure: even more increased portal pressure values
[2]
  effect on reflux esophagitis: only partially effective

## C[C@H](N)C(=O)NCC(=O)N[C@H]1CSSC[C@@H](C(=O)O)NC(=O)[C@H](CO)NC(=O)[C@H]([C@@H](C)O)NC(=O)[C@H](Cc2ccccc2)NC(=O)[C@H]([C@@H](C)O)NC(=O)[C@H](CCCCN)NC(=O)[C@H](Cc2c[nH]c3ccccc23)NC(=O)[C@H](Cc2ccccc2)NC(=O)[C@H](Cc2ccccc2)NC(=O)[C@H](CC(N)=O)NC(=O)[C@H](CCCCN)NC1=O [somatostatin]
[3]
  effect in restraint stress: ineffective

## GEPPPGKPADDAGLV [NaBPC157, Monosodium Salt of BPC157]
[4]
  gross behavior, agent alone: does not affect gross behavior or induce stereotypes
[5]
  influence on basal parameters: No influence on different basal parameters
  toxicity at high dosages: no toxicity
[6]
  tissue or organ damage (pathohistology): did not cause any tissue or organ damage
[7]
  tolerance effect of the agent itself: does not produce any tolerance effect

## NC12CC3CC(CC(C3)C1)C2 [amatadine]
[3]
  effect in restraint stress: ineffective

## COC(=O)[C@@H](N)CCCNC(=N)N[N+](=O)[O-] [L-NAME, N^G -nitro-L-arginine methylester]
[8]
  effect on ethanol gastric lesions, agent given alone: had no effect
[6]; L-NAME
  induction of PHS: caused PHS
[6]
  tissue or organ damage (pathohistology): caused severe tissue damage
[6]; in vivo
  hematological analyses: significant hemoglobin and leukocyte number decreases

## sucralfate
[2]
  effect on reflux esophagitis: only partially effective

## CC(C)C[C@H]1C(=O)N2CCC[C@H]2[C@]2(O)O[C@](NC(=O)[C@@H]3C=C4c5cccc6[nH]c(Br)c(c56)C[C@H]4N(C)C3)(C(C)C)C(=O)N12 [bromocriptine]
[3]
  effect in restraint stress: ineffective
[9]
  effect on DNFB-intestinal lesions: only partially effective

## CN(C)CCCN1c2ccccc2CCc2ccccc21 [imipramine]
[10]
  mobility in chronic unpredictable stress: failure of imipramine activity

## NPY
[11]
  protection, cysteamine: dose-dependent protection
[12]
  effect, ethanol: partial positive effect

## CN/C(=N/CCSCc1nc[nH]c1C)NC#N [cimetidine]
[3]
  effect in restraint stress: ineffective

## N=C(N)NCCC[C@@H](N)C(=O)O [D-arginine]
[8]
  effect on ethanol gastric lesions, agent given alone: ineffective

## N=C(N)NCCC[C@H](N)C(=O)O [L-arginine]
[8]; L-NAME 5 mg/kg i.v. 5 minutes before ethanol
  antiulcer activity after L-NAME: completely abolished
[8]
  effect on ethanol gastric lesions, agent given alone: antiulcer effect
[6]
  tissue or organ damage (pathohistology): provoked predominantly congestion, edema and hemorrhages in all organs
[6]; in vivo
  inhibition of the effects of L-NAME: successfully inhibited
[6]; simultaneous application, L-arginine 100 mg/kg, NaBPC157 10 μg/kg b.w.
  prevention of L-NAME-caused PHS: prevented

## secretin
[11]
  protection, cysteamine: dose-dependent protection
[12]
  effect, ethanol: partial positive effect

## NC(N)=Nc1nc(CSCCC(N)=NS(N)(=O)=O)cs1 [famotidine]
[3]
  effect in restraint stress: ineffective
